The results in this text go back to paper PMC5218480 (PLoS ONE, 2017).

For this assay, the system named is MV-4-11 cells. Description: Gene expression microarray analysis (Affymetrix PrimeView) and GSEA. It is filed as cell-based, human. To be noted: ProbeSet 11754607_s_at; LIST B.

`Nc1ncn([C@@H]2O[C@H](CO)[C@@H](O)[C@H]2O)c(=O)n1` [azacitidine]: the “RFU, HSP90B1 /// MIR3652” value is on record as 2647.82 RFU.
